Marks after values point to notes of the source that are not given here.
Tests used:
[1] = target: T1, human recombinant C-terminal His-tagged LDHA (Homo sapiens, UniProt P00338); assay: Human LDHA enzyme assay; assay type: biochemical; settings: 50 μM pyruvate, 50 μM NADH, no HSA
T1 construct: His (C)
Protocol: (§1) Compounds were dissolved in DMSO and preincubated with human recombinant C-terminal His-tagged LDHA (0.070 μg/mL) for 10 min at room temperature in assay buffer consisting 50 mM Tris, pH 7.5 and 100 mM NaCl in black walled, clear bottom, non-binding 96-well plates. Equal volumes of substrate solution containing 100 μM of pyruvate and 100 μM of NADH in assay buffer was added to each well (final concentration 0.035 μg/mL enzyme, 50 μM pyruvate, 50 μM NADH, and 1% DMSO). For human serum albumin (HSA) shift assay, the compounds were preincubated with the enzyme in assay buffer containing 20% HSA before substrate addition (final concentration 10% HSA). The reaction was monitored at 340 nm on a plate reader (Molecular Devices) in kinetic mode for 15 min. The rate of the reaction was determined by plotting absorbance vs time.

[2] = target: T1, human recombinant C-terminal His-tagged LDHA; assay: Human LDHA enzyme assay, human serum albumin (HSA) shift; assay type: biochemical; settings: final concentration 10% HSA
Protocol: as §1

[3] = test system: fresh primary mouse hepatocytes; assay: Primary mouse hepatocyte assay (lactate production); assay type: cell-based
Protocol: Compounds were evaluated in an ex vivo assay consisting of fresh primary mouse hepatocytes. Hepatocytes were isolated from wild type mice (C57BL/6NCrl from Charles River Labs) using a two-step collagenase perfusion technique which involves a sequential perfusion of anesthetized mice with Hanks' balanced salt solution and collagenase. Following isolation, viable wild type hepatocytes (0.1 M cells/well) were incubated with test compound in presence of pyruvate and compound potency was evaluated by measuring the lactate produced by the cells using liquid chromatography coupled to mass spectrometry. Chromatographic separation was achieved on an XDB-C18 4.6×50 mm column (Agilent, Cat #927975-902) at a flow rate of 1 mL/min Mobile phase A consisted of 0.1% formic acid in water and mobile phase B consisted of acetonitrile. A gradient program was initiated starting at 5% B which was held for 1 minutes, then ramped from 5% to 95% B over 1 minute. After holding at 95% B for 1 minute, the program changed back to 5% B. The column was equilibrated with 5% B for […] before the next injection. The mass spectrometer was operated in negative mode with electrospray ionization. The following transition along with their collision energy (CE) were used: 89→43 (CE: −16 V) for lactate and 92→45 (CE: −16 V) for ^13C3-Lactate (internal standard).

[4] = Liver and plasma concentrations in c57/bl6 mice; assay type: in vivo; settings: 20 mg/kg PO
Protocol: [The procedure below names another organism; the source says it served here with some conditions changed.] Plasma and liver (target organ) concentrations of test compounds were determined in rats following a single per os (PO) administration of the test compounds. Male Sprague Dawley rats (6-8 weeks of age, Charles River Labs) were fasted overnight and a single dose of test compounds (10 mg/kg; as a suspension in 0.5% methyl cellulose) was administered by PO gavage. Rats were then sacrificed at 4 and 24 h after administration of the test compounds, and plasma and liver tissue samples were collected. Liver tissue samples were homogenized in 5 volumes of water:acetonitrile (50/50; v/v) mixture using a bead mill homogenizer. Plasma and liver homogenate samples were processed by protein precipitation using acetonitrile and the concentrations of the test compounds were determined by liquid chromatography-tandem mass spectrometry (SciEx triple quad 5500+ with Exion UPLC).
Liver and plasma exposures at the 4 h and 24 h timepoints for the various compounds are described in Table 5 below. Measured compound concentrations are as follows: ++++>10 μM; 10 μM≥+++>5 μM; 5 μM≥++>1 μM; 1 μM≥+>0.25 μM; and 0.25 μM≥−.

[5] = test system: PH1 patients; settings: cited from earlier work

IC50 [1]	IC50 [2]	Measured Compound Concentrations Liver - 4 h [4]	Measured Compound Concentrations Liver - 24 h [4]	Measured Compound Concentrations Plasma - 4 h [4]	Measured Compound Concentrations Plasma - 24 h [4]	Structure (SMILES)	IC50 ([3]; 0.1 M cells/well)	IC50 ([3]; Run at 0.4M cells/well concentration of hepatocytes)	lowering of urinary oxalate [5]
< 1 nM	10 to 100 nM	+++* (10 μM≥+++>5 μM)	−* (0.25 μM≥−)	−* (0.25 μM≥−)	−* (0.25 μM≥−)	NS(=O)(=O)c1ccc(Cc2c(-c3ccc(F)cc3)nn(-c3nc(C(=O)O)cs3)c2CC2CC2)cc1Cl [Example 10, 2-(4-(3-Chloro-4-sulfamoylbenzyl)-5-(cyclopropylmethyl)-3-(4-fluorophenyl)-1H-pyrazol-1-yl)thiazole-4-carboxylic acid]	100 to 250 nM		
< 1 nM	1 to 10 nM	++* (5 μM≥++>1 μM)	−* (0.25 μM≥−)	−* (0.25 μM≥−)	−* (0.25 μM≥−)	NS(=O)(=O)c1ccc(Cc2c(-c3ccc(F)c(OC(F)F)c3)nn(-c3nc(C(=O)O)cs3)c2CC2CC2)cc1F [Example 13, 2-(5-(cyclopropylmethyl)-3-(3-(difluoromethoxy)-4-fluorophenyl)-4-(3-fluoro-4-sulfamoylbenzyl)-1H-pyrazol-1-yl)thiazole-4-carboxylic acid]		250 to 1000 nM	
						Cc1ncc(CO)c(CO)c1O [Pyridoxine]			approximately 30%
